Measurements reported in patent US10508120B2, “TYK2 inhibitors and uses thereof” (Nimbus Lakshmi, Inc., priority 2017, dated 2019).

Key:
Tyk2 kinase domain (DH1) = Tyk2 kinase domain (DH1) (Homo sapiens (Human), UniProt P29597); test: Tyk2 Radioactive Kinase Assay; type: biochemical; details: 10 μM compound; 10 μM ATP; read-out: Tyk2 JH1% Inhibition @ 10 μM
In short: (§1)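 Read-out is percent inhibition from a radioactive kinase reaction, measured with compound at 10 μM.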

JAK2 kinase domain (JH1) = JAK2 kinase domain (JH1) (Homo sapiens (Human), UniProt O60674); test: JAK2 Radioactive Kinase Assay; type: biochemical; details: 10 μM compound; 10 μM ATP; read-out: JAK2 JH1% Inhibition @ 10 μM
In short: as §1

[1] = target: human TYK2 (JH2domain-pseudokinase) (Homo sapiens (Human), UniProt P29597); test: TYK2 JH2 Domain Binding Assay (KINOMEscan)
In short: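 The construct was human TYK2 G556–D888 fused to the NFkB DNA-binding domain and expressed in HEK293 cells; unpurified extract was incubated with compound and liganded beads for 1 hour at room temperature.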

JAK2 kinase domain (JH1), sequence (O60674 849-1124): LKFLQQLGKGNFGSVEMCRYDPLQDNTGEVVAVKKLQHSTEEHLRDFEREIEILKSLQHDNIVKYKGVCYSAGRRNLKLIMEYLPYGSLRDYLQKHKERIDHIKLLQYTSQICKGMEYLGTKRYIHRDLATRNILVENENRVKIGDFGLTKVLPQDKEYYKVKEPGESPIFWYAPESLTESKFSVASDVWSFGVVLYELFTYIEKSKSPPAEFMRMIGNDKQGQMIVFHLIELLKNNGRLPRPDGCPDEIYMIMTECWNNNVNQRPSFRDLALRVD
Tyk2 kinase domain (DH1), sequence (P29597 897-1176): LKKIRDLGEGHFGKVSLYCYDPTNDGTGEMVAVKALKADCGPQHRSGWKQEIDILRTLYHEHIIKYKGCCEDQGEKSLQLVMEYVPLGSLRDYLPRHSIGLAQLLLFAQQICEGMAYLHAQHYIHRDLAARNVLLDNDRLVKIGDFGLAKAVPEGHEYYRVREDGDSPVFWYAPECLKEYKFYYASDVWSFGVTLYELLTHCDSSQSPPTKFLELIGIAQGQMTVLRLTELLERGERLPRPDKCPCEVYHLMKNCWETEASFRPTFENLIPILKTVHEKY
human TYK2 (JH2domain-pseudokinase), sequence (P29597 556-888): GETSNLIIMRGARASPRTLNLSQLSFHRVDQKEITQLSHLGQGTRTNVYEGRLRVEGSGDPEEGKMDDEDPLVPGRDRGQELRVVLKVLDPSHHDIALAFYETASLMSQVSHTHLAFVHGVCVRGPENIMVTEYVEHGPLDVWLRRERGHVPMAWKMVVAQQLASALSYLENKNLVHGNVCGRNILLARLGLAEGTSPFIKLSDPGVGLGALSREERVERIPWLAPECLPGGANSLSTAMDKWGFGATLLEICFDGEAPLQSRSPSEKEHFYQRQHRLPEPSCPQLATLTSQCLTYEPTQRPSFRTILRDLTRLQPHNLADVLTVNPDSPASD

inhibition at 10 µM (Tyk2 kinase domain (DH1)) [%] | inhibition at 10 µM (JAK2 kinase domain (JH1)) [%] | Kd [1] [nM] | Compound
< 50 | < 50 | 0.2 to 1 | CNc1cc(Nc2cccn([C@H]3CCN(C)CC3(F)F)c2=O)nc2c(C(=O)NC3CC3)cnn12 [I-823]
< 50 | < 50 | 0.2 to 1 | CNc1cc(Nc2cccn([C@@H]3CCN(C)CC3(F)F)c2=O)nc2c(C(=O)NC3CC3)cnn12 [I-824]
< 50 | < 50 | < 0.2 | CNc1cc(Nc2cccn([C@H]3CC[C@H](OC)CC3)c2=O)nc2c(C(=O)NC[C@@H](C)CO)cnn12 [I-830]
< 50 | < 50 | < 0.2 | CNc1cc(Nc2cccn([C@H]3CC[C@H](OC)CC3)c2=O)nc2c(C(=O)N[C@@H]3COC[C@@H]3O)cnn12 [I-831]
< 50 | < 50 | 1 to 10 | CNc1cc(Nc2cccn([C@H]3CC[C@H](OC)CC3)c2=O)nc2c(C(=O)N[C@H]3COC[C@H]3O)cnn12 [I-832]
< 50 | < 50 | > 10 | CNc1cc(Nc2cccc3ocnc23)nc2c(C(=O)N[C@@H]3COC[C@@H]3O)cnn12 [I-833]
< 50 | < 50 | 0.2 to 1 | CNc1cc(-c2cn(CCN3CCOCC3)c3ncccc23)nc2c(C(=O)N[C@H]3CC[C@@H]3O)cnn12 [I-836]
< 50 | < 50 | < 0.2 | CNc1cc(-c2cn(CCN3CCCCC3)c3ncccc23)nc2c(C(=O)N[C@H]3CC[C@@H]3O)cnn12 [I-838]
< 50 | < 50 | 1 to 10 | CNc1cc(-c2cn(C(C)C)c3ncccc23)nc2c(C(=O)N[C@H]3COC[C@H]3O)cnn12 [I-841, N-((3S,4S)-4-hydroxytetrahydrofuran-3-yl)-5-(1-isopropyl-1H-pyrrolo[2,3-b]pyridin-3-yl)-7-(methylamino)pyrazolo[1,5-a]pyrimidine-3-carboxamide]
< 50 | < 50 | < 0.2 | CNc1cc(Nc2cccn(C3CCN(CCF)CC3)c2=O)nc2c(C(=O)N[C@H]3CC[C@H]3O)cnn12 [I-844]
< 50 | < 50 | < 0.2 | CNc1cc(Nc2cccn(C3CCN(CCF)CC3)c2=O)nc2c(C(=O)N[C@@H]3CC[C@H]3O)cnn12 [I-845]
< 50 | < 50 | < 0.2 | CNc1cc(Nc2cccn(C3CCN(CCF)CC3)c2=O)nc2c(C(=O)NCC3(CO)CC3)cnn12 [I-846]
< 50 | < 50 | < 0.2 | CNc1cc(Nc2cccn(C3CCCN(CCF)C3)c2=O)nc2c(C(=O)NC3CC3)cnn12 (stereo not drawn) [I-848]
< 50 | < 50 | 1 to 10 | CNc1cc(Nc2cccn(-c3cccnc3C)c2=O)nc2c(C(=O)NCC(C)(C)CO)cnn12 [I-850]
< 50 | < 50 | < 0.2 | CNc1cc(Nc2cc(Cl)cn([C@@H]3CCCN(C)C3)c2=O)nc2c(C(=O)N[C@@H]3C[C@@H]3F)cnn12 [I-853]
< 50 | < 50 | 1 to 10 | CNc1cc(-c2cn(CCN3CCOCC3)c3ncccc23)nc2c(C(=O)N[C@@H]3COC[C@@H]3O)cnn12 [I-855, N-((3R,4R)-4-hydroxytetrahydrofuran-3-yl)-7-(methylamino)-5-(1-(2-morpholinoethyl)-1H-pyrrolo[2,3-b]pyridin-3-yl)pyrazolo[1,5-a]pyrimidine-3-carboxamide]
< 50 | < 50 | 0.2 to 1 | CNc1cc(-c2cn(CCN3CCOCC3)c3ncccc23)nc2c(C(=O)N[C@H]3COC[C@H]3O)cnn12 [I-856, N-((3S,4S)-4-hydroxytetrahydrofuran-3-yl)-7-(methylamino)-5-(1-(2-morpholinoethyl)-1H-pyrrolo[2,3-b]pyridin-3-yl)pyrazolo[1,5-a]pyrimidine-3-carboxamide]

inhibition at 10 µM (Tyk2 kinase domain (DH1)) [%] | inhibition at 10 µM (JAK2 kinase domain (JH1)) [%] | Kd [1] [nM] | Compound
< 50 | < 50 | < 0.2 | CNc1cc(Nc2cccc3ocnc23)nc2c(C(=O)N[C@H]3CC[C@@H]3O)cnn12 [I-858, 5-(benzo[d]oxazol-4-ylamino)-N-((1S,2S)-2-hydroxycyclobutyl)-7-(methylamino)pyrazolo[1,5-a]pyrimidine-3-carboxamide]
< 50 | < 50 | < 0.2 | CNc1cc(Nc2cccc(-c3cn(C)nc3F)n2)nc2c(C(=O)NC3CC3)cnn12 [I-859]
< 50 | < 50 | < 0.2 | CNc1cc(Nc2cccn([C@H]3C[C@@H]3F)c2=O)nc2c(C(=O)NC3CC3)cnn12 [I-867]
< 50 | < 50 | < 0.2 | CNc1cc(Nc2cccn(-c3ncccc3F)c2=O)nc2c(C(=O)NC[C@H](C)CO)cnn12 [I-868]
< 50 | < 50 | < 0.2 | CNc1cc(Nc2cccn(-c3ncccc3F)c2=O)nc2c(C(=O)NC[C@@H](C)CO)cnn12 [I-869]
< 50 | < 50 | 0.2 to 1 | CNc1cc(Nc2cccn(C3CC4(COC4)C3)c2=O)nc2c(C(=O)N[C@@H]3CC[C@@H]3O)cnn12 [I-871]
< 50 | < 50 | < 0.2 | CNc1cc(Nc2cccc(N3CC4(CCO4)C3)n2)nc2c(C(=O)N[C@H]3CC[C@H]3O)cnn12 [I-872]
< 50 | < 50 | 1 to 10 | CNc1cc(Nc2cccc(N3CC4(CCO4)C3)n2)nc2c(C(=O)N[C@@H]3CC[C@@H]3O)cnn12 [I-873]
< 50 | < 50 | 1 to 10 | CNc1cc(-c2cn(CCN3CCCCC3)c3ncccc23)nc2c(C(=O)N[C@@H]3CC[C@@H]3O)cnn12 [I-874]
< 50 | < 50 | < 0.2 | CNc1cc(-c2cn(CCN3CCCCC3)c3ncccc23)nc2c(C(=O)N[C@H]3CC[C@H]3O)cnn12 [I-875]
< 50 | < 50 | 1 to 10 | CNc1cc(Nc2cccn([C@@H]3CCCC[C@@H]3O)c2=O)nc2c(C(=O)NC3CC3)cnn12 [I-879]
< 50 | < 50 | < 0.2 | CNc1cc(Nc2cccn([C@H]3CCCN(CCF)C3)c2=O)nc2c(C(=O)NC3CC3)cnn12 [I-880]
< 50 | < 50 | 0.2 to 1 | CNc1cc(Nc2cccn([C@@H]3CCCN(CCF)C3)c2=O)nc2c(C(=O)NC3CC3)cnn12 [I-881]
< 50 | < 50 | < 0.2 | CNc1cc(Nc2cccn([C@H]3CCC[C@H](OC)C3)c2=O)nc2c(C(=O)N[C@@H]3C[C@@H]3F)cnn12 [I-882]
< 50 | < 50 | 1 to 10 | CNc1cc(Nc2cccn([C@@H]3CCCC[C@@H]3O)c2=O)nc2c(C(=O)N[C@@H]3C[C@@H]3F)cnn12 [I-889]
< 50 | < 50 | < 0.2 | CNc1cc(Nc2cccn(C(C)C)c2=O)nc2c(C(=O)N[C@H]3CC[C@H]3O)cnn12 [I-894]
